Assays:
[1] = Safety of single application in Phase 3 studies (Example 9); format: in vivo, human; details: single application 0.74% w/w
Description: A total of seven hundred and four (704) pediatric and adult subjects, six (6) months of age or older, with an active head lice infestation were enrolled in two separate Phase 3 studies. These studies assessed the efficacy of a single application of 0.74% w/w abametapir compared to a vehicle control (refer Table 9, above). Subjects were treated for 10 minutes with a lotion containing abametapir or the vehicle lotion alone. After 10 minutes the lotion was rinsed out of the subjects hair with water and towel dried. At day 1, 7 and 14 post treatment the hair was examined for the presence of live lice. If any live lice were detected on any of the three visits the subject was deemed a treatment failure. The primary endpoint to the study was that proportion of index subjects (youngest member of the household with at least 3 live lice at the commencement of the study) who were lice free at all follow-up visits through day 14.

[2] = system: Pediculus humanus capitis eggs; assay: Effect of formulated 5,5′-dimethyl-2,2′-dipyridyl on egg hatching (Example 3); details: for Stage of development: eggs with eye development / Stage of development: eggs with no eye development / Stage of development: eggs hatched: 10 eggs
Description: Gravid female lice were permitted to lay eggs over a 24 hour period. The eggs were counted, inspected under a light microscope and all eggs that appeared undamaged were allocated to one of two treatment groups. One group of 10 eggs was exposed to 5,5′-dimethyl-2,2′-dipyridyl in a formulation (52-06-01), while the second group of 10 eggs was exposed to the formulation only (vehicle, 52-06-02) Table 2. The two formulations were as follows: […]
Following a 10 minute exposure to either the 52-06-01 or […] formulations the eggs were subsequently washed for 1 minute with water (˜37° C.) before being placed at 31° C. in a humid incubator and monitored over time for signs of development specifically of the eyes and through to subsequent hatching.

[3] = system: Pediculus humanus humanus eggs; assay: In vitro ovicidal efficacy, 0.74% w/w composition versus vehicle (Example 6); details: compared to the vehicle formulation
Description: This formulation including 0.5% BHT was also evaluated for its ovicidal activity.

[4] = system: Pediculus humanus capitis eggs; assay: Ex vivo ovicidal efficacy, double-blind vehicle-controlled randomized clinical trial (Example 7)
Description: In this study the formulation as listed in Table 9 containing 0.74% 5,5′-dimethyl-2,2′-dipyridyl, (abametapir), was evaluated in a double-blind, vehicle-controlled randomized clinical trial. The primary aim of the trial was to evaluate the ovicidal efficacy of a single application of abametapir lotion 0.74% w/w intended for the treatment of head lice. The primary end point was the proportion of hatched eggs pre-treatment relative to proportion of hatched eggs post-treatment for the formulation containing abametapir and vehicle treated eggs following a 14 day incubation.
This ex vivo study involved identifying subjects with an active head lice infestation (active being defined as the presence of at least 3 live lice and at least 10 undamaged eggs). A minimum of 5 undamaged eggs were collected both pre and post treatment and their predicted viability assessed under a dissecting microscope before being incubated in a temperature and humidity controlled incubator (30° C. and 60% RH) for 14 days to provide adequate time for the eggs to hatch. After 14 days eggs were assessed as either hatched, unhatched, or partially hatched.

[5] = system: head lice Pediculus humanus capitis infestation; assay: In vivo efficacy in subjects with head lice infestation, two dose levels (Example 8); details: single 10 minute application, human subjects 3 years or older
Description: (§1) One hundred and forty two (142) pediatric and adult subjects, three (3) years of age or older, with an active head lice infestation were enrolled in the study. This study assessed the efficacy of a single application of 2 different dose levels (0.37% w/w and 0.74% w/w of 5,5′-dimethyl-2,2′-dipyridyl) compared to a vehicle control. The formulations were prepared as described in Table 9. Subjects were treated for 10 minutes with a lotion containing one of two dose levels of 5,5′-dimethyl-2,2′-dipyridyl or the vehicle lotion. After 10 minutes the lotion was rinsed out of the subjects hair with water and towel dried. At day 1, 7 and 14 post treatment the hair was examined for the presence of live lice. If any live lice were detected on any of the three visits the subject was deemed a treatment failure. The primary endpoint to the study was that proportion of subjects who were lice free at day 14.

[6] = Safety of single application in subjects (Example 8); format: in vivo, human; details: single application at two dose levels 0.37% w/w and 0.74% w/w
Description: as §1

[7] = Day 1 of observation, formulation 52-06-01 (0.38%), 10 minute exposure
[8] = Day 4, formulation 52-06-01, 10 minute exposure
[9] = Day 5, formulation 52-06-01, 10 minute exposure
[10] = Day 6, formulation 52-06-01, 10 minute exposure
[11] = Day 7, formulation 52-06-01, 10 minute exposure
[12] = Day 12, formulation 52-06-01, 10 minute exposure

SMILES: Cc1ccc(-c2ccc(C)cn2)nc1 [5,5′-dimethyl-2,2′-dipyridyl]
- safety results [1]: safe and well tolerated
- Stage of development: eggs with eye development [2, 7]: 1 eye development
- Stage of development: eggs with no eye development [2, 7]: 9 no eye development
- Stage of development: eggs hatched [2, 8]: 1 hatched
- Stage of development: eggs with eye development [2, 8]: 1 eye development
- Stage of development: eggs with no eye development [2, 8]: 8 no eye development
- Stage of development: eggs hatched [2, 9]: 1 hatched
- Stage of development: eggs with eye development [2, 9]: 1 eye development
- Stage of development: eggs with no eye development [2, 9]: 8 no eye development
- Stage of development: eggs hatched [2, 10]: 1 hatched
- Stage of development: eggs with eye development [2, 10]: 1 eye development
- Stage of development: eggs with no eye development [2, 10]: 8 no eye development
- Stage of development: eggs hatched [2, 11]: 1 hatched
- Stage of development: eggs with eye development [2, 11]: 1 eye development
- Stage of development: eggs with no eye development [2, 11]: 8 no eye development
- Stage of development: eggs hatched [2, 12]: 1 hatched
- Stage of development: eggs with eye development [2, 12]: 1 eye development
- Stage of development: eggs with no eye development [2, 12]: 8 no eye development
- eggs in the treatment arm failed to hatch ([2]; overall, ten eggs, 0.37% w/w formulation, 10 minute exposure): 90%
- ovicidal activity (in words) [3]: significant ovicidal activity
- Egg hatch Post-treatment ([4]; eggs collected after single application, 14 day incubation, N = 25): 0%
- Egg hatch Pre-treatment ([4]; eggs collected pre-treatment (baseline), 14 day incubation, N = 25): 93.3%
- Total absolute reduction in hatch rate (CI 95%) ([4]; generalized estimating equation model): 92.9%
- The treatment difference in the absolute reduction of hatch rates (abametapir minus Vehicle) ([4]; p < 0.0001): 50.6%
- ovicidal efficacy (eggs treated failed to hatch) ([4]; post-treatment, 14 day incubation): 100%
- subjects with treatment success (lice free at day 14) ([5]; 0.37% w/w lotion): 67.4%
- subjects with treatment success (lice free at day 14) ([5]; 0.74% w/w lotion): 85.7%
- safety results [6]: safe and well tolerated

Source: patent US11510410B2, “Pediculicidal composition” (DR. REDDY'S LABORATORIES, S.A., priority 2013, dated 2022)
